Here are results for three compounds from patent US12257334B2, “Oral care compositions” (Colgate-Palmolive Company, priority 2015, dated 2025).

Series [1] can be described thus: Stabilization with multi-charged species: redissolving the DV-CHX precipitate. To be noted: with significant stirring time. It counts as physicochemical. The source says: Stabilization with Multi-Charged Species: The addition of DV to a solution of CHX causes an immediate precipitation. However, the addition of low levels of surfactants or multi-charged compounds brings both DV and CHX back into solution. The table below lists multiple compounds that help to redissolve the DV-CHX, and what we have found as their lowest effective levels. These solutions are stable from pH 4.9-7. Addition of citric acid to lower the pH to <4.9 causes significant precipitation.

The subject of series [2] is mixed species inoculum culture containing: Lactobacillus casei, Streptococcus oralis, Actinomyces viscosus, Veillonella parvula & Fusobacterium nucleatum. It counts as cell-based. As for the experimental part: Bacterial kill: A 20-second short interval kill test (SIKT) measures the efficacy of various treatment solutions in killing oral pathogens. […] A mixed species inoculum culture containing: Lactobacillus casei, Streptococcus oralis, Actinomyces viscosus, Veillonella parvula & Fusobacterium nucleatum at an optical density of 0.5 @ 610nm is centrifuged. The supernatant is then aspirated off and the remaining pellicle re-suspended in sterile phosphate buffered saline (PBS). 100 ul of this solution is then treated with 100 ul of test sample for 30 or 60 seconds. Immediately following treatment, the exposure is neutralized by adding 1.3 ml of sterile D/E neutralizing broth. The neutralizing broth is then rinsed off by centrifugation and re-suspension in PBS. 50 ul samples are then transferred in triplicate to a 96-well microplate. The fluorescent dyes are then prepared per the manufacturer's directions and added to the samples. The fluorescence is then measured in a fluorescent plate reader. Data from this assay are presented as a percentage of bacterial remaining viable relative to a control sample treated with PBS.

The conditions of series [3]: aqueous solution, no net charge; cited from earlier work.

In the case of `C[N+](C)(C)CC(=O)O` [Betaine], the Lowest effective level in series [1] (added to solution of 0.12% CHX and 1.025 DV (w/w by actives)) is 0.3% for 0.12% CHX; in series [1] (added to solution of 0.2% CHX and 1.025 DV (w/w by actives)), 0.3% for 0.2% CHX.

Take `CCO` [Dead, ethanol]: in series [2], the “% viability” value came out at 36.3%.

As for `NCCCC[C@H](N)C(=O)O` [lysine], the isoelectric point in series [3] is 9.7 pH.
